Drawing on patent publication US10316017B2, “COT modulators and methods of use thereof” (Gilead Sciences, Inc., priority 2015, dated 2019), this text covers IC50 for 25 compounds.

The target of one assay is T1, human Cot catalytic domain (30-397 amino acids) (Homo sapiens, UniProt P41279).
T1 construct: Purified recombinant human Cot catalytic domain (30-397 amino acids) was purchased from Cama Biosciences; purchased Cama Biosciences (so in the source)
T1 sequence (P41279 30-397): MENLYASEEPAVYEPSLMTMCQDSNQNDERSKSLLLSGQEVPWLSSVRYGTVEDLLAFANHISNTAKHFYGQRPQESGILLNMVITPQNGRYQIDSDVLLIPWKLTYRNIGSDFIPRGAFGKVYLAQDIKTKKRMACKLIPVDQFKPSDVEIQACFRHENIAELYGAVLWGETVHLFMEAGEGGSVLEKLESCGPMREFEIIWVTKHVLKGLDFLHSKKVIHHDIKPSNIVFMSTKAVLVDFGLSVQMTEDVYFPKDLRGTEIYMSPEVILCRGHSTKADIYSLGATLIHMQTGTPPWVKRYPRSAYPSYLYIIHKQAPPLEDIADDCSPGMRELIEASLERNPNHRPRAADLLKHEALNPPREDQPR
Description: High Throughput Cot Biochemical Assay (KinEASE TR-FRET). As to conditions: Cot KinEASE TR-FRET, 400 μM ATP; read-out: IC50 HTRF. In short, it runs like this:
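TR-FRET readout: Eu-labeled phospho-specific antibody binds XL665-tagged STK3 peptide after phosphorylation by Cot (aa 30-397, 5 nM). Conditions: 400 μM ATP, 1 μM peptide, MOPS pH 7.0 buffer with MgOAc, DTT, BSA, NP-40, glycerol; 0.1% DMSO.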
On the technique in general: In TR-FRET formats the signal depends on donor and acceptor labels being close together.
Turning to `Cc1cc(F)ccc1C(Nc1cc(Cl)c2ncc(C#N)c(Nc3ccc(F)c(Cl)c3)c2c1)c1cn(C2CCN(C(=O)OCc3ccccc3)CC2)nn1` (stereo not shown) [Example 883, benzyl 4-(4-(((8-chloro-4-((3-chloro-4-fluorophenyl)amino)-3-cyanoquinolin-6-yl)amino)(4-fluoro-2-methylphenyl)methyl)-1H-1,2,3-triazol-1-yl) piperidine-1-carboxylate], the IC50 worked out at 6680 nM.
Same read-out and setting: with `CCN1CCC(n2cc(C(Nc3cc(Cl)c4ncc(C#N)c(Nc5ccc(F)c(Cl)c5)c4c3)c3ccc(OC(F)(F)F)cc3)nn2)CC1` (stereo not shown) [Example 898, 8-chloro-4-((3-chloro-4-fluorophenyl)amino)-6-(((1-(1-ethylpiperidin-4-yl)-1H-1,2,3-triazol-4-yl)(4-(trifluoromethoxy)phenyl)methyl)amino)quinoline-3-carbonitrile] the figure was 40 nM.
Regarding `CCN1CC[C@@H](n2cc(C(Nc3cc(Cl)c4ncc(C#N)c(Nc5ccc(F)c(Cl)c5)c4c3)c3ccc(Cl)cc3)nn2)C1` (stereo partly drawn) [Example 868, 8-chloro-4-((3-chloro-4-fluorophenyl)amino)-6-(((4-chlorophenyl)(1-((R)-1-ethylpyrrolidin-3-yl)-1H-1,2,3-triazol-4-yl)methyl)amino)quinoline-3-carbonitrile], the IC50 was 119 nM.
On the same count and under the same terms, in the case of `CCN1CCC(n2cc(C(Nc3cc(Br)c4ncc(C#N)c(Nc5ccc(F)c(Cl)c5)c4c3)c3ccc(F)cc3)nn2)CC1` (stereo not shown) [Example 833, 8-bromo-4-((3-chloro-4-fluorophenyl)amino)-6-(((1-(1-ethylpiperidin-4-yl)-1H-1,2,3-triazol-4-yl)(4-fluorophenyl)methyl)amino) quinoline-3-carbonitrile] it was 7 nM.
On the same count and under the same terms, in the case of `CCN1CC[C@H](n2cc(C(Nc3cc(Cl)c4ncc(C#N)c(Nc5ccc(F)c(Cl)c5)c4c3)c3ccc(F)cc3)nn2)C1` (stereo partly drawn) [Example 877, 8-chloro-4-((3-chloro-4-fluorophenyl)amino)-6-(((1-((S)-1-ethylpyrrolidin-3-yl)-1H-1,2,3-triazol-4-yl)(4-fluorophenyl)methyl)amino) quinoline-3-carbonitrile] it was 47 nM.
Still for that read-out and setting: in the case of `CC(C)(C)N1CCC(n2cc([C@@H](Nc3cc(Cl)c4ncc(C#N)c(Nc5cccc(-n6nccn6)c5)c4c3)c3ccccc3)nn2)CC1` [Example 785, (S)-4-((3-(2H-1,2,3-triazol-2-yl)phenyl)amino)-6-(((1-(1-(tert-butyl)piperidin-4-yl)-1H-1,2,3-triazol-4-yl)(phenyl)methyl)amino)-8-chloroquinoline-3-carbonitrile] it was 782 nM; in that of `N#Cc1cnc2c(Cl)cc(NC(c3ccccc3)c3cn(CC(=O)O)nn3)cc2c1Nc1ccc(F)c(Cl)c1` (stereo not shown) [Example 912, 2-(4-(((8-chloro-4-((3-chloro-4-fluorophenyl)amino)-3-cyanoquinolin-6-yl)amino)(phenyl)methyl)-1H-1,2,3-triazol-1-yl)acetic acid], 60 nM.
Regarding `N#Cc1cnc2c(Cl)cc(NC(c3ccc(F)cc3)c3ncco3)cc2c1Nc1ccc(F)c(Cl)c1` (stereo not shown) [Example 783, 8-chloro-4-((3-chloro-4-fluorophenyl)amino)-6-(((4-fluorophenyl)(oxazol-2-yl)methyl)amino)quinoline-3-carbonitrile], the IC50 worked out at 291 nM.
Turning to `N#Cc1cnc2c(Cl)cc(NC(c3ccc(F)cc3)c3ccno3)cc2c1Nc1ccc(F)c(Cl)c1` (stereo not shown) [Example 717, 8-chloro-4-((3-chloro-4-fluorophenyl)amino)-6-(((4-fluorophenyl)(isoxazol-5-yl)methyl)amino)quinoline-3-carbonitrile], the IC50 was 1580 nM.
Same read-out and setting: with `N#Cc1cnc2c(Cl)cc(NC(c3cccc(F)c3)c3cn(C4CCNCC4)nn3)cc2c1Nc1ccc(F)c(Cl)c1` (stereo not shown) [Example 906, 8-chloro-4-((3-chloro-4-fluorophenyl)amino)-6-(((3-fluorophenyl)(1-(piperidin-4-yl)-1H-1,2,3-triazol-4-yl)methyl)amino)quinoline-3-carbonitrile] the figure was 8 nM.
On the same count and under the same terms, with `CCN1CCC(n2cc([C@@H](Nc3cc(Cl)c4ncc(C#N)c(Nc5ccc(F)c(Cl)c5)c4c3)c3ccc4ccccc4c3)nn2)CC1` [Example 820, (S)-8-chloro-4-((3-chloro-4-fluorophenyl)amino)-6-(((1-(1-ethylpiperidin-4-yl)-1H-1,2,3-triazol-4-yl)(naphthalen-2-yl)methyl)amino)quinoline-3-carbonitrile] the figure was 23 nM.
Take `CCN1CCC(n2cc(C(Nc3cc(Cl)c4ncc(C#N)c(Nc5ccc(F)c(Cl)c5)c4c3)c3ccc(Cl)cc3)nn2)CC1` (stereo not shown) [Compound 6]: the IC50 stood at 13 nM.
For `COc1cccc(C(Nc2cc(Cl)c3ncc(C#N)c(Nc4ccc(F)c(Cl)c4)c3c2)c2cn(C3CCN(C(=O)OCc4ccccc4)CC3)nn2)c1` (stereo not shown) [Example 902, benzyl 4-(4-(((8-chloro-4-((3-chloro-4-fluorophenyl)amino)-3-cyanoquinolin-6-yl)amino)(3-methoxyphenyl)methyl)-1H-1,2,3-triazol-1-yl)piperidine-1-carboxylate], the IC50 was over 1000 nM.
Still for that read-out and setting: with `C#CC(c1ccc(Cl)cc1)N(c1cc(Cl)c2ncc(C#N)c(Nc3cncc(Cl)c3)c2c1)C(c1ccc(Cl)cc1)c1cn(C2CCN(C(C)(C)C)CC2)nn1` (stereo not shown) [Example 725, 6-(((1-(1-(tert-butyl)piperidin-4-yl)-1H-1,2,3-triazol-4-yl)(4-chlorophenyl)methyl)(1-(4-chlorophenyl)prop-2-yn-1-yl)amino)-8-chloro-4-((5-chloropyridin-3-yl)amino)quinoline-3-carbonitrile] the figure was 338 nM; with `N#Cc1cnc2c(Cl)cc(N[C@@H](c3ccc(F)cc3)c3cn(C4CN5CCC4CC5)nn3)cc2c1Nc1ccc(F)c(Cl)c1` (stereo partly drawn) [Example 829, 8-chloro-4-((3-chloro-4-fluorophenyl)amino)-6-(((1S)-(4-fluorophenyl)(1-(quinuclidin-3-yl)-1H-1,2,3-triazol-4-yl)methyl)amino)quinoline-3-carbonitrile], 6 nM; with `N#Cc1cnc2ccc(NC(c3ccc(F)cc3)c3ccncn3)cc2c1Nc1ccc(F)c(Cl)c1` (stereo not shown) [Example 799, 4-((3-chloro-4-fluorophenyl)amino)-6-(((4-fluorophenyl)(pyrimidin-4-yl)methyl)amino)quinoline-3-carbonitrile], 1480 nM.
The same measure, in the same setting: in the case of `CC(C)(C)N1CCC(n2cc([C@@H](Nc3cc(Cl)c4ncc(C#N)c(Nc5cncc(F)c5)c4c3)c3ccc(Cl)cc3)nn2)CC1` [Example 771, (S)-6-(((1-(1-(tert-butyl)piperidin-4-yl)-1H-1,2,3-triazol-4-yl)(4-chlorophenyl)methyl)amino)-8-chloro-4-((5-fluoropyridin-3-yl)amino)quinoline-3-carbonitrile] it was 93 nM.
`N#Cc1cnc2c(Cl)cc(NC(c3ccc(F)cc3)c3cocn3)cc2c1Nc1ccc(F)c(Cl)c1` (stereo not shown) [Example 807, 8-chloro-4-((3-chloro-4-fluorophenyl)amino)-6-(((4-fluorophenyl)(oxazol-4-yl)methyl)amino)quinoline-3-carbonitrile]: the IC50 was determined as 437 nM.
On the same count and under the same terms, with `N#Cc1cnc2c(Cl)cc(NC(c3ccc(OC(F)(F)F)cc3)c3cn(C4CCN(C(=O)OCc5ccccc5)CC4)nn3)cc2c1Nc1ccc(F)c(Cl)c1` (stereo not shown) [Example 896, benzyl 4-(4-(((8-chloro-4-((3-chloro-4-fluorophenyl)amino)-3-cyanoquinolin-6-yl)amino)(4-(trifluoromethoxy)phenyl)methyl)-1H-1,2,3-triazol-1-yl)piperidine-1-carboxylate] the figure was over 10000 nM.
Still for that read-out and setting: with `N#Cc1cnc2c(Cl)cc(NC(c3ccccc3)c3c[nH]nn3)cc2c1Nc1ccc(F)c(Cl)c1` (stereo not shown) [Example 888, 8-chloro-4-((3-chloro-4-fluorophenyl)amino)-6-((phenyl(1H-1,2,3-triazol-4-yl)methyl)amino)quinoline-3-carbonitrile] the figure was 50 nM; with `CC(C)(C)N1CCC(n2cc([C@@H](Nc3cc(Cl)c4ncc(C#N)c(Nc5ccc(F)c(S(C)(=O)=O)c5)c4c3)c3ccc(Cl)cc3)nn2)CC1` [Example 754, (S)-6-(((1-(1-(tert-butyl)piperidin-4-yl)-1H-1,2,3-triazol-4-yl)(4-chlorophenyl)methyl)amino)-8-chloro-4-((4-fluoro-3-(methylsulfonyl)phenyl)amino) quinoline-3-carbonitrile], 2530 nM; with `CC(C)(C)n1cc([C@@H](Nc2cc(Cl)c3ncc(C#N)c(Nc4ccc(F)c(Cl)c4)c3c2)c2ccc(F)cc2)nn1` [Example 811, (S)-6-(((1-(tert-butyl)-1H-1,2,3-triazol-4-yl)(4-fluorophenyl)methyl)amino)-8-chloro-4-((3-chloro-4-fluorophenyl)amino)quinoline-3-carbonitrile], 34 nM.
Still for that read-out and setting: in the case of `Cn1ccc(C(Nc2cc(Cl)c3ncc(C#N)c(Nc4ccc(F)c(Cl)c4)c3c2)c2ccc(F)cc2)n1` (stereo not shown) [Example 846, 8-chloro-4-((3-chloro-4-fluorophenyl)amino)-6-(((4-fluorophenyl)(1-methy-1-1H-pyrazol-3-yl)methyl)amino)quinoline-3-carbonitrile] it was over 10000 nM.
As for `N#Cc1cnc2c(Cl)cc(NC(c3ccc(Cl)cc3)c3cn([C@@H]4CCNC4)nn3)cc2c1Nc1ccc(F)c(Cl)c1` (stereo partly drawn) [Example 867, 8-chloro-4-((3-chloro-4-fluorophenyl)amino)-6-(((4-chlorophenyl)(1-((R)-pyrrolidin-3-yl)-1H-1,2,3-triazol-4-yl)methyl)amino)quinoline-3-carbonitrile], the IC50 was 46 nM.

Still in this assay, the particulars now being: first value of the cell IC50/EC50; 400 μM ATP, 5 nM Cot; read-out: IC50/EC50 [nM]: IC50 (Cot).
Regarding `CCN1CCC(n2cc([C@H](C)Nc3cc(Cl)c4ncc(C#N)c(Nc5ccc(F)c(Cl)c5)c4c3)nn2)CC1` [Comparative Example 2, reference compound], the IC50 amounted to 62 nM.
